Structures can show the parent of a compound that is named as a salt.
Legend:
[1] = In vivo pharmacokinetic experiment on cynomolgus monkeys; conditions: intragastric
Procedure: Cynomolgus monkeys were used as test animals. After intragastric administration of the compound of the disclosure to cynomolgus monkeys, plasma concentrations at different time points were determined by LC/MS/MS. The pharmacokinetic behavior of the compound of the disclosure in cynomolgus monkeys was studied and its pharmacokinetic profile was evaluated.
Test Animals: 2 Healthy Cynomolgus Monkeys Aged 24-36 Months Per Group (One Male and One Female)
Compound solution preparation: Certain amounts of compound were weighed out and normal saline was added to form 10 mg/mL (reference 1) and 3 mg/mL (compound 6) colorless clear solutions.
Administration: Cynomolgus monkeys were fasted overnight and then intragastrically dosed. Reference 1 was administered at a dose of 50 mg/kg, and compound 6 was administered at a dose of 15 mg/kg.
Procedure: Cynomolgus monkeys were intragastrically administered the compound of the disclosure. Blood samples of about 0.5 mL were collected from the peripheral vein at 0.25, 0.5, 1, 2, 4, 6, 8, and 24 h post-dose and placed into test tubes containing EDTA-K2. The blood samples were centrifuged at about 4° C. at 2000 rpm for 10 min to separate plasma, and the plasma was stored at −75° C.
(§1) Determination of the content of the test compound in cynomolgus monkey plasma at these different blood collection time points: Samples of 33 μL (30 μL of plasma and 3 μL of blank) of the cynomolgus monkey plasma collected at these time points post-dose were taken and added to 18 μL of a 6% perchloric acid solution. After 30 s of vortexing, the mixture was centrifuged at a temperature of 4° C. at 3900 rpm for 15 min, and 200 μL of alkalinized (the pH was adjusted to 10-11 with ammonia water) acetonitrile solution containing dexamethasone as an internal standard was then added to precipitate protein. After 30 s of vortexing, the mixture was centrifuged at 4° C. at 3900 rpm for 15 min. The supernatants of the plasma samples were taken and 3-fold diluted with water, and 8 μL of dilution was taken for LC/MS/MS analysis.
(§2) After plasma concentrations were determined by LC/MS/MS analysis, pharmacokinetic parameters were calculated using WinNonlin 6.1 software and a non-compartmental model method.

[2] = target: Apo(a) and ApoB protein assembly (Homo sapiens (Human), UniProt P08519); assay: Test for activity of compounds in inhibiting Lp(a) assembly (double antibody ELISA); type: biochemical; conditions: plasma from human transgenic hApo(a) and hApoB mice; 37° C., 2 h; ELISA absorbance at 450 nm
Procedure: The disclosure used a double antibody ELISA method to measure the efficiency of Apo(a) and ApoB protein assembly. The antibodies were ApoB-Capture antibody (Mabtech) and Apo(a)-Detector antibody (Abcam); the test samples were plasma from human transgenic hApo(a) and hApoB mice and were diluted 500-fold before use.
Experimental steps: Equal amounts of Apo(a) and ApoB serum were mixed with a serially diluted test compound (highest concentration at 100 nM, serially diluted 3-fold). The mixture was incubated in a 37° C. incubator for 2 h. The reaction was then terminated by adding 6-aminocaproic acid (EACA, purchased from Sigma) to a final concentration of 150 mM. The post-reaction solution was then added to an ELISA plate pre-coated with ApoB-Capture antibody, and the plate was incubated at room temperature for 2 h. Then the plate was washed 4 times with wash buffer; biotinylated Apo(a)-Detector antibody was added, and the plate was incubated at room temperature for 1 h. The plate was washed, and the chromogenic substrate 3,3′,5,5′-tetramethylbenzidine (TMB, purchased from Abcam) solution was added. After the plate was incubated at room temperature for 15 min, a reaction stop solution was added. Immediately after the solution was mixed well, the absorbance at 450 nm was measured using a microplate reader. Finally, data analysis and IC50 calculation were performed using GraphPad Prism 9 software.
The 0% inhibition rate for Apo(a) and ApoB protein assembly corresponds to the OD value where the compound concentration was 0 (1% DMSO); the 100% inhibition rate for Apo(a) and ApoB protein assembly corresponds to the OD value where only ApoB protein solution (a dilution of plasma from hApoB mice) was added.

[3] = In vivo pharmacokinetic experiment on beagles; conditions: intragastric, 10 mg/kg, conclusion in words
Procedure: Beagles were used as test animals. After intragastric administration of the compound of the disclosure to beagles, plasma concentrations at different time points were determined by LC/MS/MS. The pharmacokinetic behavior of the compound of the disclosure in beagles was studied and its pharmacokinetic profile was evaluated.
Test Animals: 2 Healthy Male Beagles Aged 8-36 Months Per Group
Compound solution preparation: A certain amount of compound was weighed out and normal saline was added to form a 2 mg/mL colorless clear solution.
Administration: Beagles were fasted overnight and then intragastrically dosed. Reference 1 and compound 6 were both administered at a dose of 10 mg/kg.
Procedure: Beagles were intragastrically administered the compound of the disclosure. Blood samples of about 0.6 mL were collected from the peripheral vein at 0.25, 0.5, 1, 2, 4, 6, 8, and 24 h post-dose and placed into test tubes containing EDTA-K2. The blood samples were centrifuged at about 4° C. at 2000 rpm for 10 min to separate plasma, and the plasma was stored at −75° C.
as §1, with “beagle” for “cynomolgus monkey”
as §2

[4] = High-dose single-dose tolerance experiment on mice; type: in vivo, C57/6J mice
Procedure: C57/6J mice were used as test animals and administered a high dose of the compound of the disclosure by oral gavage. Clinical observations were carried out on the mice, and the safety of the compound of the disclosure was evaluated.
Experimental method: 8 male C57/6J mice were numbered 1-8 and weighed. The mice were fasted for 4 h before the experiment and weighed after the fast (0 h). Six mice with body weights closer to the average were selected and divided into 2 groups of 3.
The first group (G1) was administered reference 1, and the second group (G2) was administered the compound of the disclosure, Example 6. In both groups G1 and G2, the compounds were administrated by oral gavage at a dose of 1000 mg/kg, with normal saline as a vehicle. Clinical observations were carried out on the mice in the experimental group at 15 min, 30 min, 1 h, 2 h, 4 h, 6 h, and 24 h post-dose, and both groups were given food at 2 h post-dose.

Chain of Apo(a) and ApoB protein assembly (P08519 20-2040): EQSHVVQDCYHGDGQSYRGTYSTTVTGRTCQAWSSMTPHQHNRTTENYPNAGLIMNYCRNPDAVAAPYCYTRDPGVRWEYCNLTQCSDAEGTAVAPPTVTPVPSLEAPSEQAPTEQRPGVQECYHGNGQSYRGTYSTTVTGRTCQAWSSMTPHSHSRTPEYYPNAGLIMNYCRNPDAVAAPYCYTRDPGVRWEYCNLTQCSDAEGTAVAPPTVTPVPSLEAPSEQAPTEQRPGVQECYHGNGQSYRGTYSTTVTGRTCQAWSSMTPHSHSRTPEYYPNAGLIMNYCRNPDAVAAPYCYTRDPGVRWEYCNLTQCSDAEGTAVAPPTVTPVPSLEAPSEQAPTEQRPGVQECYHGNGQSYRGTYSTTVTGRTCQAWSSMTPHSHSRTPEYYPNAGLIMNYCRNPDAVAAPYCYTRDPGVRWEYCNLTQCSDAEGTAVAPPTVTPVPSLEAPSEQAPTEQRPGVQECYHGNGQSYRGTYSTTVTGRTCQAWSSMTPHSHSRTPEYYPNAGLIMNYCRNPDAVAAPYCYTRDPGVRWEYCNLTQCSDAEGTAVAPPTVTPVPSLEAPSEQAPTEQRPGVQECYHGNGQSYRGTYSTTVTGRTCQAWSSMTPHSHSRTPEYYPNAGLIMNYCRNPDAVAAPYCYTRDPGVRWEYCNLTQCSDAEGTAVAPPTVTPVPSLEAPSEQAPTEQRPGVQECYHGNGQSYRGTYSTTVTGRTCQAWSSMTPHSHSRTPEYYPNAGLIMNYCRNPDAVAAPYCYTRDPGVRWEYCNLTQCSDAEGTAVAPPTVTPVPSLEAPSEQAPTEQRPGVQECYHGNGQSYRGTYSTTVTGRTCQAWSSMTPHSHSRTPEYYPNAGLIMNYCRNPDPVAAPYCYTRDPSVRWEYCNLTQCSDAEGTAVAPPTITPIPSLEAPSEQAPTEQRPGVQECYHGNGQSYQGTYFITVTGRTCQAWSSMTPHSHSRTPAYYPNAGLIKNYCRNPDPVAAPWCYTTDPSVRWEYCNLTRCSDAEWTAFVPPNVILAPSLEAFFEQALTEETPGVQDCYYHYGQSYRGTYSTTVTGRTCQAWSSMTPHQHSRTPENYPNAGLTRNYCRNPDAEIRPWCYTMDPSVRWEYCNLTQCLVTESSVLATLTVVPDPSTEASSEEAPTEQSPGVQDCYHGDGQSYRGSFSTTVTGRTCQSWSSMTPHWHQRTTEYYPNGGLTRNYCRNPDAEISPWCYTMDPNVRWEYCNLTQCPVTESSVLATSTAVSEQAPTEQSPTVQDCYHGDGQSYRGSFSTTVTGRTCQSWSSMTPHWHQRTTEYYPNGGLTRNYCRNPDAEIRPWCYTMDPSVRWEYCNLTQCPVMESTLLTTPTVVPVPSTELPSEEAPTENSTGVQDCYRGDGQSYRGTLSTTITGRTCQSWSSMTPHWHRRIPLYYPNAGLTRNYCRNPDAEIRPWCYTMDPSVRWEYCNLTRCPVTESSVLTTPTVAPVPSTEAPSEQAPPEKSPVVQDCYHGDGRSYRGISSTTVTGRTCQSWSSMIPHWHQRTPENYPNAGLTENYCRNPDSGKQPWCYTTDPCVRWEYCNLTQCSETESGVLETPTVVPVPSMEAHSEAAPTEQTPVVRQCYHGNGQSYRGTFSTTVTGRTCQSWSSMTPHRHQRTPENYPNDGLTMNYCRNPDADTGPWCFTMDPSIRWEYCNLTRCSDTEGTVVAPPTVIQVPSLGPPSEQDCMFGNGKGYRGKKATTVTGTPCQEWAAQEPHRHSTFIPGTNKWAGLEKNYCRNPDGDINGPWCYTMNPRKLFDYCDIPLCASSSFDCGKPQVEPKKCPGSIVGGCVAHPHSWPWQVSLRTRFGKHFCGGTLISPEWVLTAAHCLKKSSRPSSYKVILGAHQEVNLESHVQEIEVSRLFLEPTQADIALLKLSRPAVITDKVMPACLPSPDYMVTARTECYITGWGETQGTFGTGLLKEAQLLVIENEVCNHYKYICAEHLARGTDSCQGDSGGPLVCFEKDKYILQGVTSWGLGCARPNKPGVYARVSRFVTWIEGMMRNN

O=C(O)[C@@H](Cc1cccc(CN(CCOc2cccc(C[C@H](C(=O)O)[C@H]3CCNC3)c2)Cc2cccc(C[C@H](C(=O)O)[C@H]3CCNC3)c2)c1)[C@H]1CCNC1 [Compound 6, (2S)-3-(3-{[(2-{3-[(2S)-2-Carboxy-2-[(3R)-pyrrolidin-3-yl]ethyl]phenoxy}ethyl)({3-[(2S)-2-carboxy-2-[(3R)-pyrrolidin-3-yl]ethyl]phenyl}methyl)amino]methyl}phenyl)-2-[(3R)-pyrrolidin-3-yl]propanoic acid tetrahydrochloride]
AUC ([1]; both sexes, cynomolgus monkey, plasma, po, 15 mg/kg, read-out: Area under curve AUC): 33100 ng·h/mL | half-life ([1]; both sexes, cynomolgus monkey, plasma, po, 15 mg/kg, read-out: Half-life T1/2 (converted)): 16.6 h | Cmax ([1]; both sexes, cynomolgus monkey, plasma, po, 15 mg/kg, read-out: Maximum plasma concentration Cmax): 2370 ng/mL | Unit-dose area under curve AUC/D ([1]; 15 mg/kg): 2200 ng·h/mL per mg/kg | plasma exposure relative to reference 1 ([1]; compound 6 15 mg/kg vs reference 1 50 mg/kg): ~5 times | oral absorption compared with reference 1 ([1]; conclusion in words): better | IC50 [2]: 0.41 nM | oral absorption compared with reference 1 [3]: better | body weight trend of the mice ([4]; 7 d after high-dose (1000 mg/kg) administration, conclusion in words): remained unchanged or even increased | Mouse body weight, Day 0 ([4]; male C57/6J mice, single oral gavage 1000 mg/kg, mean, Day 0): 25.83 g | Mouse body weight, Day 3 ([4]; male C57/6J mice, single oral gavage 1000 mg/kg, mean, Day 3): 26.93 g | Mouse body weight, Day 5 ([4]; male C57/6J mice, single oral gavage 1000 mg/kg, mean, Day 5): 26.70 g | Mouse body weight, Day 7 ([4]; male C57/6J mice, single oral gavage 1000 mg/kg, mean, Day 7): 26.67 g
